In data set [1] the test system is Stenotrophomonas maltophilia. The experiment in a line: Antibacterial activity against Stenotrophomonas maltophilia K279a assessed as bacterial growth inhibition at 50 uM incubated for 20 hrs by broth microdilution method. The class given is functional, organism-based.
Data set [2] concerns Pseudomonas aeruginosa. The experiment in a line: Antibiofilm activity against Pseudomonas aeruginosa PAR7244 assessed as reduction in biofilm formation at 50 uM incubated for 24 hrs by crystal violet staining based analysis relative to control. It is filed as functional. Also on record: scale not given: the % may be the effect or the level left.
Data set [3] concerns Candida albicans. Put plainly: Inhibition of biofilm formation in RFP-expressing Candida albicans M2396 at 50 uM incubated for 24 hrs by crystal violet staining based analysis relative to control. It is filed as functional.
Data set [4] deals with Stenotrophomonas maltophilia. Put plainly: Inhibition of biofilm formation in Stenotrophomonas maltophilia K279a at 50 uM incubated for 24 hrs by crystal violet staining based analysis. It is filed as functional, organism-based.
For a further data set, the system named is HK-2. The experiment in a line: Cytotoxicity against human HK-2 cells assessed as reduction in cell survival at 50 uM incubated for 24 to 48 hrs by MTT assay. The class given is toxicity, cell-based. To be noted: hk-2, 50 µM, time 24-48 hrs. Background: Tetrazolium assays rely on reduction of a dye to a coloured formazan, in cell work by metabolically active cells.

In data set [5] the test system is Pseudomonas aeruginosa. Put plainly: Inhibition of biofilm formation in eYFP labeled Pseudomonas aeruginosa PAO1 at 50 uM incubated for 24 hrs by crystal violet staining based analysis relative to control. It is filed as functional.
The subject of data set [6] is Pseudomonas aeruginosa. The experiment in a line: Antibacterial activity against Pseudomonas aeruginosa PAR7244 assessed as bacterial growth inhibition at 50 uM incubated for 20 hrs by broth microdilution method. The class given is functional, organism-based.
The nature of data set [7]: Toxicity in Galleria mellonella larvae assessed as signs of melanization at 100 uM.
The nature of data set [8]: Toxicity in Galleria mellonella larvae assessed as reduction in animal survival at 100 uM.
Data set [9] concerns Pseudomonas aeruginosa. Put plainly: Antibacterial activity against eYFP labeled Pseudomonas aeruginosa PAO1 assessed as inhibition of bacterial growth at 50 uM incubated for 20 hrs by broth microdilution method relative to control. The class given is functional. Set-up: scale not given: the % may be the effect or the level left. A general note: Broth dilution looks for growth in wells or tubes with falling amounts of substance.

For another data set, the system named is Staphylococcus aureus. Put plainly: Inhibition of biofilm formation in Staphylococcus aureus Newman ATCC 25904 at 50 uM incubated for 24 hrs by crystal violet staining based assay relative to control. It is filed as functional.
The subject of data set [10] is Candida albicans. The experiment in a line: Inhibition of biofilm formation in developmental phase of Candida albicans M2396 at 50 uM incubated for 24 hrs by crystal violet staining based analysis relative to control. It is filed as functional.
For data set [11], the system named is Pseudomonas aeruginosa. Put plainly: Antibacterial activity against Pseudomonas aeruginosa PAR7244 infected in Galleria mellonella larvae assessed as increase in survival rate at 50 uM measured every 24 hrs (reference value: 48 %). It is filed as functional.
The subject of data set [12] is Escherichia coli. Put plainly: Antibacterial activity against Escherichia coli ATCC 9637 assessed as bacterial growth inhibition at 50 uM incubated for 20 hrs by broth microdilution method relative to control. The class given is functional. Set-up: scale not given: the % may be the effect or the level left.
The test system of data set [13] is Salmonella typhimurium. Put plainly: Antibiofilm activity against Salmonella enterica subsp. enterica serovar Typhimurium assessed as reduction in biofilm formation at 50 uM incubated for 24 hrs by crystal violet staining based assay relative to control. It is filed as functional. Also on record: scale not given: the % may be the effect or the level left.
The subject of data set [14] is Candida albicans. The experiment in a line: Antibiofilm activity against Candida albicans M2396 at 50 uM incubated for 24 hrs by confocal laser-scanning microscopy. The class given is functional, organism-based.
In data set [15] the test system is Salmonella typhimurium. The experiment in a line: Antibacterial activity against Salmonella enterica subsp. enterica serovar Typhimurium assessed as bacterial growth inhibition at 50 uM incubated for 20 hrs by broth microdilution method. It is filed as functional, organism-based.
Data set [16] deals with Pseudomonas aeruginosa. The experiment in a line: Antibiofilm activity against Pseudomonas aeruginosa PAO1 at 50 uM incubated for 24 hrs by confocal laser-scanning microscopy. It is filed as functional, organism-based.
In data set [17] the test system is Candida albicans. The experiment in a line: Antibiofilm activity against Candida albicans M2396/Pseudomonas aeruginosa PA01 dual-species at 50 uM incubated for 24 hrs by confocal laser-scanning microscopy. It is filed as functional, organism-based.
In data set [18] the test system is Candida albicans. Put plainly: Inhibition of biofilm formation in developmental phase of Candida albicans M2396 at 50 uM incubated for 24 hrs by crystal violet staining based analysis. The class given is functional, organism-based.
Data set [19] deals with Escherichia coli. Put plainly: Antibiofilm activity against Escherichia coli ATCC 9637 assessed as reduction in biofilm formation at 50 uM incubated for 24 hrs by crystal violet staining based assay. It is filed as functional, organism-based.
Data set [20] concerns Candida albicans. The experiment in a line: Antifungal activity against RFP-expressing Candida albicans M2396 assessed as fungal growth inhibition at 50 uM incubated for 20 hrs by microplate reader analysis. It is filed as functional, organism-based.
For data set [21], the system named is Candida albicans. Put plainly: Inhibition of biofilm formation in Candida albicans M2396 at 50 uM incubated for 24 hrs by crystal violet staining based analysis. It is filed as functional, organism-based.
For data set [22], the system named is Pseudomonas aeruginosa. The experiment in a line: Antibiofilm activity against Pseudomonas aeruginosa PAR7244 assessed as reduction in biofilm formation at 50 uM incubated for 24 hrs by crystal violet staining based analysis. The class given is functional, organism-based.

Data on 4 compounds can be found in ChEMBL document CHEMBL5352404, “Synthesis and evaluation of novel furanones as biofilm inhibitors in opportunistic human pathogens” (Eur J Med Chem, 2022).

Structures are written as SMILES. Calls of active or inactive are those of the source. The rule behind the calls is not given here.

The inhibition is the share of the control response that was lost under treatment. As for `CC1=CC(=O)OC1=C(Br)Br`, the outcome (in data set [1]; with Pseudomonas aeruginosa [6]) was inactive. For the same compound, the Activity is given as 44% with Pseudomonas aeruginosa [2]; “Toxic” with HK-2; “Non-Toxic” in [7]; “Non-Toxic” in data set [8]; 11% with Pseudomonas aeruginosa [9]. Moreover, the results for the inhibition at 50 µM with Candida albicans [3] and in the data set with Pseudomonas aeruginosa [5] were 38% and 70%, respectively. Further, the inhibition entry in data set [4] is “inactive”.

On to `COc1cccc(C(=C2C=CC(=O)O2)c2cccc(OC)c2)c1`, for which the result (in [1]; with Pseudomonas aeruginosa [6]) was inactive. Further, the inhibition at 50 µM in the data set on Candida albicans [3] was 53%; in the data set with Staphylococcus aureus, 30%; in the data set with Pseudomonas aeruginosa [5], 44%; in the data set on Candida albicans [10], 71%. In addition, the inhibition entry in [4] was “inactive”. Also, the Activity result was “Non-Toxic” in the data set on HK-2, “Non-Toxic” in [7], “Non-Toxic” in data set [8] and “<=5%” in the data set on Pseudomonas aeruginosa [9]. In addition, in the data set with Pseudomonas aeruginosa [11], the survival at 50 µM was determined as 72%.

With `O=C1C=C/C(=C(\Cl)I)O1`, the Activity in the data set with Escherichia coli [12] was 28%; in the data set with Salmonella typhimurium [13], 59%; with Pseudomonas aeruginosa [9], “<=5%”. The result (in [1]; with Pseudomonas aeruginosa [6]) was inactive. Further, the result in the data set with Candida albicans [14], in the data set with Salmonella typhimurium [15], in the data set with Pseudomonas aeruginosa [16] and with Candida albicans [17] was Active. Besides, the inhibition at 50 µM was found to be 92% in the data set with Candida albicans [3], 51% in the data set on Pseudomonas aeruginosa [5] and 52% in the data set on Candida albicans [10]. Also, the inhibition result in data set [4] was “inactive”.

On to `O=C1C=C/C(=C/Br)O1`, for which the result (in [1]; with Escherichia coli [19]; in the data set on Pseudomonas aeruginosa [6]; in the data set on Pseudomonas aeruginosa [22]) was inactive. The outcome in the data set with Candida albicans [14], in the data set on Candida albicans [20] and in the data set on Candida albicans [17] was Active. Besides, the inhibition result (with Candida albicans [18]; in data set [4]) was “inactive” throughout. Besides, the Activity entry with HK-2 is given as “Toxic”; in data set [7] it was “Non-Toxic”; in data set [8] it was “Non-Toxic”; in the data set on Pseudomonas aeruginosa [9], “<=5%”. In addition, in the data set on Pseudomonas aeruginosa [5], the inhibition at 50 µM came to 75%. In the data set with Candida albicans [21], the inhibition entry was “Active”.
